# Laboratory results: US8110681B2, “Compounds for the treatment of spinal muscular atrophy and other uses” (The United States of America as represented by the …, priority 2006, dated 2012)
# Read-outs that look alike come from different tables or passages of the source.
# Tested on: SMN2-linked luciferase-reporter gene construct
# Test: SMN splice reporter assay (SMN2-linked luciferase reporter, Example 10)
# Format: cell-based
# Details: for maximal fold induction: read-out: SMN Splice Reporter Assay (Example 10) Avg MaxFold Increase
# Description: Cervical carcinoma cell lines were transformed with a SMN2-linked luciferase-reporter gene construct. The reporter is designed to detect shifts in the alternative splicing of SMN2 sequences. In particular, the reporter is constructed as a fusion of the alternatively spliced sequences of the SMN2 gene and the luciferase gene. Luciferase sequences are in the correct translational reading frame only when the SMN2 sequences are spliced according to the normal SMN1 mechanism (e.g., splicing to include exon 7), which allows for translation of the stable SMN protein. Compounds were tested in the assay by administering the compound to the cell line and detecting an increase in the luciferase activity. The assay is described in greater detail in Zhang et al., Gene Ther., 8, 1532-8 (2001). Compounds were administered as described in Lunn et al, Chem. & Biol, 11, 1489-1493 (2004).
# The results are reported as a fold-increase over a baseline reading of transformed cells without any test compound.
# [1] = maximum fold increase of reporter signal, average
# [2] = SMN2-linked luciferase reporter, average
# [3] = SMN2-linked luciferase reporter, average maximum fold increase
SMILES,maximal fold induction [1],EC50 [2] [nM],maximal fold induction [3]
CC(C(=O)OC(C)(C)C)c1ccc(N2Cc3c(cccc3-c3cncnc3)C2=O)cc1 (stereo not drawn) [ALB-112349],1.06,–,–
CC(C(=O)O)c1ccc(N2Cc3cc(Br)ccc3C2=O)cc1 (stereo not drawn) [ALB-111855],1.35,553,–
CCCOc1ccc2c(c1)C(=O)N(c1ccc(C(C)C(=O)O)cc1)C2 (stereo not drawn) [ALB-114934],1.87,33,–
CC(C)c1ccc(N2Cc3ccc(N4CCCCC4)cc3C2=O)cc1 [ALB-116418],1.15,–,–
CC(C(=O)OC(C)(C)C)c1ccc(N2Cc3ccc(-c4cccs4)cc3C2=O)cc1 (stereo not drawn) [ALB-112474],1.18,–,–
CCC(C(=O)OC(C)(C)C)c1ccc(N2Cc3ccccc3C2=O)cc1 (stereo not drawn) [ALB-112364],1.21,3260,–
CCCc1cc(N2Cc3ccccc3C2=O)ccc1C(C)C(=O)O (stereo not drawn) [ALB-112083],1.09,–,–
C[C@H](C(=O)O)c1ccc(N2Cc3ccccc3C2=O)cc1 [ALB-112837],1.4,8540,–
CC(CBr)c1ccc(N2Cc3ccccc3C2=O)cc1 (stereo not drawn) [ALB-113651],1.44,209,–
COc1ccc(-c2cccc3c2C(=O)N(c2ccc(C(C)C(=O)OC(C)(C)C)cc2)C3)cc1 (stereo not drawn) [ALB-112152],1.04,–,–
CC(C)c1ccc(N2Cc3ccc(N4CCOCC4)cc3C2=O)cc1 [ALB-116368],1.08,–,–
CC(C(=O)OC(C)(C)C)c1ccc(N2Cc3c(N)cccc3C2=O)cc1 (stereo not drawn) [ALB-111952],1.04,–,–
O=C1c2ccccc2CN1c1ccc(C2CCCC2)cc1 [ALB-115068],1.41,53,–
CC(C(=O)O)c1ccc(N2Cc3ccc(-c4ccccc4)cc3C2=O)cc1 (stereo not drawn) [ALB-112446],1.45,1700,–
CC(C(=O)OC(C)(C)C)c1ccc(N2Cc3ccccc3C2=O)c(-c2ccc(Cl)cc2)c1 (stereo not drawn) [ALB-112162],1.03,–,–
CC(C(=O)OC(C)(C)C)c1ccc(N2Cc3ccccc3C2=O)cc1-c1ccc(Cl)c(Cl)c1 (stereo not drawn) [ALB-111963],1.02,–,–
CC(C(=O)O)c1ccc(N2Cc3cc4ccsc4cc3C2=O)cc1 (stereo not drawn) [ALB-112228],1.27,669,–
CC(C)OCc1ccc2c(c1)C(=O)N(c1ccc(C(C)C(=O)O)cc1)C2 (stereo not drawn) [ALB-114741],1.67,–,–
CC(C)c1ccc(N2Cc3cccc(I)c3C2=O)cc1 [ALB-117753],1.6,183,–
CC(C(=O)O)c1ccc(N2Cc3ccc(N4CCCC4)cc3C2=O)cc1 (stereo not drawn) [ALB-114739a],1.55,58,–
CC(C(=O)OC(C)(C)C)c1ccc(N2Cc3ccc(OC(F)F)cc3C2=O)cc1 (stereo not drawn) [ALB-119336],–,718,1.21
COc1cccc2c1C(=O)N(c1ccc(C(C)C)cc1)C2 [ALB-117748],1.34,166,–
CCc1ccc(N2Cc3ccccc3C2=O)cc1 [ALB-114940],1.36,97,–
CCc1ccc(N2Cc3cc4c(cc3C2=O)OCCO4)cc1 [ALB-116240],–,33,1.62

SMILES,maximal fold induction [1],EC50 [2] [nM],maximal fold induction [3]
CC(C)(C)OC(=O)Cc1ccc(N2Cc3ccccc3C2=O)cc1 [ALB-112230],1.1,–,–
CC(C)=Cc1ccc2c(c1)C(=O)N(c1ccc(C(C)C(=O)O)cc1)C2 (stereo not drawn) [ALB-115425],1.95,18,–
CC(C(=O)OC(C)(C)C)c1ccc(N2Cc3cccc(-c4cccs4)c3C2=O)cc1 (stereo not drawn) [ALB-112154],1.11,–,–
CC(C(=O)OC(C)(C)C)c1ccc(N2Cc3ccc(Nc4ccc(Cl)cc4)cc3C2=O)cc1 (stereo not drawn) [ALB-112166],1.04,–,–
CNC(=O)C(C)c1ccc(N2Cc3ccccc3C2=O)cc1 (stereo not drawn) [ALB-112079],1.14,–,–
COC(=O)C(C)c1ccc(N2Cc3ccccc3C2=O)cc1 (stereo not drawn) [ALB-111731],1.43,174,–
CC(C(=O)O)c1ccc(N2Cc3c(Cl)cccc3C2=O)cc1 (stereo not drawn) [ALB-111763],1.17,13900,–
CC(C(=O)NS(=O)(=O)N(C)C)c1ccc(N2Cc3ccccc3C2=O)cc1 (stereo not drawn) [ALB-111749],1.16,14000,–
CC(C)c1ccc(N2Cc3cc(N)ccc3C2=O)cc1 [ALB-117747],1.49,34,–
CC(C(=O)OC(C)(C)C)c1ccc(N2Cc3ccccc3C2=O)c(-c2cncnc2)c1 (stereo not drawn) [ALB-112194],1.1,–,–
COc1ccc(-c2cc(C(C)C(=O)OC(C)(C)C)ccc2N2Cc3ccccc3C2=O)cc1 (stereo not drawn) [ALB-112082],1.12,–,–
CC(C(=O)Nc1ccccc1)c1ccc(N2Cc3ccccc3C2=O)cc1 (stereo not drawn) [ALB-112075],1.25,578,–
CC(C(=O)OC(C)(C)C)c1ccc(N2Cc3cc(-c4ccc(Cl)cc4)ccc3C2=O)cc1 (stereo not drawn) [ALB-111886],1.07,–,–
COc1ccc(-c2cc(N3Cc4ccccc4C3=O)ccc2C(C)C(=O)O)cc1 (stereo not drawn) [ALB-112002],1.08,–,–
CC(C#N)c1ccc(N2Cc3ccccc3C2=O)cc1 (stereo not drawn) [ALB-112330],1.46,259,–
CC(C)Oc1cccc2c1C(=O)N(c1ccc(C(C)C(=O)O)cc1)C2 (stereo not drawn) [ALB-113392],1.65,4860,–
CC(C(=O)OC(C)(C)C)c1ccc(N2Cc3ccc(Cl)cc3C2=O)cc1 (stereo not drawn) [ALB-111740],1.49,2020,–
CC(=O)Nc1ccc2c(c1)C(=O)N(c1ccc(C(C)C)cc1)C2 [ALB-118157],–,203,1.51
COCc1ccc(N2Cc3ccc(OC)cc3C2=O)cc1 [ALB-116067],1.24,–,–
C=Cc1ccc2c(c1)C(=O)N(c1ccc(C(C)COC)cc1)C2 (stereo not drawn) [ALB-115327],1.43,76,–
CC(C)NC(=O)C(C)c1ccc(N2Cc3ccccc3C2=O)cc1 (stereo not drawn) [ALB-112076],1.12,1370,–
CC(C(=O)OC(C)(C)C)c1ccc(N2Cc3c(Cl)cccc3C2=O)cc1 (stereo not drawn) [ALB-111760],1.07,–,–
CC(C(=O)OC(C)(C)C)c1ccc(N2Cc3cc(C#N)ccc3C2=O)cc1 (stereo not drawn) [ALB-112444],1.04,307,–
CCCc1ccc2c(c1)CN(c1ccc(C(C)C(=O)O)cc1)C2=O (stereo not drawn) [ALB-113564],1.05,–,–

SMILES,maximal fold induction [1],EC50 [2] [nM],maximal fold induction [3]
CC(C)(C)c1ccc(N2Cc3ccccc3C2=O)cc1 [ALB-114936],1.41,131,–
CC(C(=O)OC(C)(C)C)c1ccc(N2Cc3ccc(Nc4ccccc4)cc3C2=O)cc1 (stereo not drawn) [ALB-112168],1.15,–,–
CC(C(=O)NS(=O)(=O)C(C)C)c1ccc(N2Cc3ccccc3C2=O)cc1 (stereo not drawn) [ALB-111856],1.14,568,–
CC(C(=O)O)c1ccc(N2Cc3ccccc3C2=O)cc1-c1ccccc1 (stereo not drawn) [ALB-112234],1.26,25400,–
CC(C(=O)O)c1ccc(N2Cc3c(cccc3-c3ccc(Cl)c(Cl)c3)C2=O)cc1 (stereo not drawn) [ALB-112226],1.44,26200,–
CC(C)c1ccc(N2Cc3cccc(O)c3C2=O)cc1 [ALB-118158],–,733,1.54
COCC(C)c1ccc(N2Cc3ccc(COC(C)C)cc3C2=O)cc1 (stereo not drawn) [ALB-114847],1.23,–,–
COc1ccc2c(c1)C(=O)N(c1ccc(C3CCCCC3)cc1)C2 [ALB-115496],1.39,556,–
CC(C(=O)O)c1ccc(N2Cc3ccccc3C2=O)c(-c2ccc(Cl)cc2)c1 (stereo not drawn) [ALB-112164],1.05,–,–
CC(C(=O)O)c1ccc(N2CC3CCCCC3C2=O)cc1 (stereo not drawn) [ALB-112901],1.49,5820,–
COCc1ccc2c(c1)C(=O)N(c1ccc(C(C)COC)cc1)C2 (stereo not drawn) [ALB-114942],1.33,217,–
CC(C)Cc1ccc2c(c1)C(=O)N(c1ccc(C(C)C(=O)O)cc1)C2 (stereo not drawn) [ALB-115426],1.96,13,–
CC(C(=O)O)c1ccc(N2Cc3cccnc3C2=O)cc1 (stereo not drawn) [ALB-112229a],1.13,–,–
CCC(C(=O)O)c1ccc(N2Cc3ccccc3C2=O)cc1 (stereo not drawn) [ALB-112433],1.32,4180,–
CCOCc1ccc2c(c1)C(=O)N(c1ccc(C(C)C(=O)O)cc1)C2 (stereo not drawn) [ALB-114742],1.58,42,–
CC(C(=O)NO)c1ccc(N2Cc3ccccc3C2=O)cc1 (stereo not drawn) [ALB-111748],1.38,2270,–
CC(CF)c1ccc(N2Cc3ccc(C4CCCC4)cc3C2=O)cc1 (stereo not drawn) [ALB-114740],1.22,822,–
CCN(C)C(=O)N(C)c1ccc2c(c1)C(=O)N(c1ccc(C(C)C)cc1)C2 [ALB-119049],–,–,1.08
Cc1ccc(-c2ccc3c(c2)C(=O)N(c2ccc(C(C)C(=O)OC(C)(C)C)cc2)C3)cc1 (stereo not drawn) [ALB-112442],1.11,–,–
CC(C(=O)O)c1ccc(N2Cc3ccc(O)cc3C2=O)cc1 (stereo not drawn) [ALB-113103],1.04,–,–
CC(C(=O)O)c1ccc(N2Cc3ccc(N4CCOCC4)cc3C2=O)cc1 (stereo not drawn) [ALB-114738a],1.08,–,–
COc1ccc2c(c1)C(=O)N(c1ccc(C3CCCC3)cc1)C2 [ALB-115422],1.27,399,–
C/C=C/c1ccc2c(c1)C(=O)N(c1ccc(C(C)C(=O)O)cc1)C2 (stereo not drawn) [ALB-114086],1.99,88,–
CC(C(=O)OC(C)(C)C)c1ccc(N2Cc3ccc(NS(=O)(=O)c4ccccc4)cc3C2=O)cc1 (stereo not drawn) [ALB-112072],–,–,1.07
